Key:
Format in all cases: cell-based
Pseudomonas aeruginosa = test: MIC/MLC in brain heart infusion broth; conditions: for MIC, Concentration of Lactic Esters 0.5%: 0.5% ester; for MIC, Concentration of Lactic Esters 1%: 1% ester; for MIC, Concentration of Lactic Esters 2%: 2% ester; for MIC, Concentration of Lactic Esters 3%: 3% ester; for MIC, Concentration of Lactic Esters 4%: 4% ester; for MIC, Concentration of Lactic Esters 5%: 5% ester; as to all read-outs here: key: + = growth (inactive); − = no growth (active)
Experimental: (§1) The tests were carried out in 10 ml of brain heart infusion broth. The esters were serially diluted in brain heart infusion broth of samples of, 0.1, 0.2, 0.3, 0.4 and 0.5/10 ml and challenged with 0.1 ml of 1/100 dilution of 24 hr old brain heart infusion bacterial culture. The lowest concentration determined the minimum inhibitory concentration (MIC). The samples were observed after 48 hrs at 37° C. A loopful from tubes without growth were plated on BHI agar plates and observed for growth for 24 to 48 hrs at 37° C. The samples with the lowest concentration of the ester without bacterial growth on the plates represented the minimum lethal concentration (MLC).
(§2) A series of samples of (a) methyl lactate, (b) ethyl lactate and (c) butyl lactate, alone, and in admixture with varying amounts of decyl lactate and sodium dodecyl sulfates were used to test minimum inhibitory activity (MIC) by the method described in Example II, against the cultures of E. coli 0157 H7, Listeria monocytogenes, Staphylococcus aureus, Salmonella typhi, and Pseudomonas aeruginosa.

Saccharomyces cerevisiae = test: MIC and MLC against yeast in Sab. broth; conditions: for Lethal (MLC) Concentration 1% / Inhibitory (MIC) Concentration 1%: 1% ester; for Lethal (MLC) Concentration 1.5% / Inhibitory (MIC) Concentration 1.5%: 1.5% ester; for Lethal (MLC) Concentration 2% / Inhibitory (MIC) Concentration 2%: 2% ester; for Lethal (MLC) Concentration 3% / Inhibitory (MIC) Concentration 3%: 3% ester; for Lethal (MLC) Concentration 4% / Inhibitory (MIC) Concentration 4%: 4% ester; as to Lethal (MLC) Concentration 1%: key: + = growth (inactive); − = no growth (active); as to Lethal (MLC) Concentration 1.5%: key: + = growth (inactive); − = no growth (active); as to Lethal (MLC) Concentration 2%: key: + = growth (inactive); − = no growth (active); as to Lethal (MLC) Concentration 3%: key: + = growth (inactive); − = no growth (active); as to Lethal (MLC) Concentration 4%: key: + = growth (inactive); − = no growth (active)
Experimental: A 0.1 ml of 1/100 dilution of 48 hr old culture of S. cerevisiae was used as inoculum. The test was performed using Sab. broth. The tubes were incubated at room temperature 25° C. The test was read after 48 hrs.

Listeria monocytogenes = test: MIC/MLC in brain heart infusion broth; also: key: + = growth (inactive); − = no growth (active)
Experimental: as §1, §2

COC(=O)C(C)O (stereo not shown) [Methyl lactate, methyl lactate]
MIC, Concentration of Lactic Esters 0.5% (Pseudomonas aeruginosa; SDS 0.0 ppm): +
MIC, Concentration of Lactic Esters 0.5% (Pseudomonas aeruginosa; SDS 50 ppm): −
MIC, Concentration of Lactic Esters 0.5% (Pseudomonas aeruginosa; SDS 100 ppm): −
MIC, Concentration of Lactic Esters 0.5% (Pseudomonas aeruginosa; SDS 200 ppm): −
MIC, Concentration of Lactic Esters 1% (Pseudomonas aeruginosa; SDS 0.0 ppm): +
MIC, Concentration of Lactic Esters 1% (Pseudomonas aeruginosa; SDS 50 ppm): −
MIC, Concentration of Lactic Esters 1% (Pseudomonas aeruginosa; SDS 100 ppm): −
MIC, Concentration of Lactic Esters 1% (Pseudomonas aeruginosa; SDS 200 ppm): −
MIC, Concentration of Lactic Esters 2% (Pseudomonas aeruginosa; SDS 0.0 ppm): −
MIC, Concentration of Lactic Esters 2% (Pseudomonas aeruginosa; SDS 50 ppm): −
MIC, Concentration of Lactic Esters 2% (Pseudomonas aeruginosa; SDS 100 ppm): −
MIC, Concentration of Lactic Esters 2% (Pseudomonas aeruginosa; SDS 200 ppm): −
MIC, Concentration of Lactic Esters 3% (Pseudomonas aeruginosa; SDS 0.0 ppm): −
MIC, Concentration of Lactic Esters 3% (Pseudomonas aeruginosa; SDS 50 ppm): −
MIC, Concentration of Lactic Esters 3% (Pseudomonas aeruginosa; SDS 100 ppm): −
MIC, Concentration of Lactic Esters 3% (Pseudomonas aeruginosa; SDS 200 ppm): −
MIC, Concentration of Lactic Esters 4% (Pseudomonas aeruginosa; SDS 0.0 ppm): −
MIC, Concentration of Lactic Esters 4% (Pseudomonas aeruginosa; SDS 50 ppm): −
MIC, Concentration of Lactic Esters 4% (Pseudomonas aeruginosa; SDS 100 ppm): −
MIC, Concentration of Lactic Esters 4% (Pseudomonas aeruginosa; SDS 200 ppm): −
MIC, Concentration of Lactic Esters 5% (Pseudomonas aeruginosa; SDS 0.0 ppm): −
MIC, Concentration of Lactic Esters 5% (Pseudomonas aeruginosa; SDS 50 ppm): −
MIC, Concentration of Lactic Esters 5% (Pseudomonas aeruginosa; SDS 100 ppm): −
MIC, Concentration of Lactic Esters 5% (Pseudomonas aeruginosa; SDS 200 ppm): −
Lethal (MLC) Concentration 1% (Saccharomyces cerevisiae): +
Inhibitory (MIC) Concentration 1% (Saccharomyces cerevisiae; 48 hrs, 25° C): +
Inhibitory (MIC) Concentration 1% (Saccharomyces cerevisiae; Sodium lauryl sulfate 200 ppm): +
Lethal (MLC) Concentration 1% (Saccharomyces cerevisiae; Sodium lauryl sulfate 200 ppm): +
Lethal (MLC) Concentration 1.5% (Saccharomyces cerevisiae): +
Inhibitory (MIC) Concentration 1.5% (Saccharomyces cerevisiae; 48 hrs, 25° C): +
Inhibitory (MIC) Concentration 1.5% (Saccharomyces cerevisiae; Sodium lauryl sulfate 200 ppm): +
Lethal (MLC) Concentration 1.5% (Saccharomyces cerevisiae; Sodium lauryl sulfate 200 ppm): +
Lethal (MLC) Concentration 2% (Saccharomyces cerevisiae): +
Inhibitory (MIC) Concentration 2% (Saccharomyces cerevisiae; 48 hrs, 25° C): +
Inhibitory (MIC) Concentration 2% (Saccharomyces cerevisiae; Sodium lauryl sulfate 200 ppm): +
Lethal (MLC) Concentration 2% (Saccharomyces cerevisiae; Sodium lauryl sulfate 200 ppm): +
Lethal (MLC) Concentration 3% (Saccharomyces cerevisiae): −
Inhibitory (MIC) Concentration 3% (Saccharomyces cerevisiae; 48 hrs, 25° C): −
Inhibitory (MIC) Concentration 3% (Saccharomyces cerevisiae; Sodium lauryl sulfate 200 ppm): −
Lethal (MLC) Concentration 3% (Saccharomyces cerevisiae; Sodium lauryl sulfate 200 ppm): −
Lethal (MLC) Concentration 4% (Saccharomyces cerevisiae): −
Inhibitory (MIC) Concentration 4% (Saccharomyces cerevisiae; 48 hrs, 25° C): −
Inhibitory (MIC) Concentration 4% (Saccharomyces cerevisiae; Sodium lauryl sulfate 200 ppm): −
Lethal (MLC) Concentration 4% (Saccharomyces cerevisiae; Sodium lauryl sulfate 200 ppm): −

CCCCOC(=O)C(C)O (stereo not shown) [Butyl lactate, butyl lactate]
MLC, Concentration of Butyl lactate 0.5% (Listeria monocytogenes; 0.5%): +
MLC, Concentration of Butyl lactate 1% (Listeria monocytogenes; 1%): +
MLC, Concentration of Butyl lactate 2% (Listeria monocytogenes; 2%): −
MLC, Concentration of Butyl lactate 3% (Listeria monocytogenes; 3%): −
MLC, Concentration of Butyl lactate 4% (Listeria monocytogenes; 4%): −
MLC, Concentration of Butyl lactate 5% (Listeria monocytogenes; 5%): −
MLC, Concentration of Butyl lactate 0.5% (Pseudomonas aeruginosa; 0.5%): +
MIC, Concentration of Lactic Esters 0.5% (Pseudomonas aeruginosa; SDS 0.0 ppm): +
MIC, Concentration of Lactic Esters 0.5% (Pseudomonas aeruginosa; SDS 50 ppm): −
MIC, Concentration of Lactic Esters 0.5% (Pseudomonas aeruginosa; SDS 100 ppm): −
MIC, Concentration of Lactic Esters 0.5% (Pseudomonas aeruginosa; SDS 200 ppm): −
MLC, Concentration of Butyl lactate 1% (Pseudomonas aeruginosa; 1%): +
MIC, Concentration of Lactic Esters 1% (Pseudomonas aeruginosa; SDS 0.0 ppm): +
MIC, Concentration of Lactic Esters 1% (Pseudomonas aeruginosa; SDS 50 ppm): −
MIC, Concentration of Lactic Esters 1% (Pseudomonas aeruginosa; SDS 100 ppm): −
MIC, Concentration of Lactic Esters 1% (Pseudomonas aeruginosa; SDS 200 ppm): −
MLC, Concentration of Butyl lactate 2% (Pseudomonas aeruginosa; 2%): +
MIC, Concentration of Lactic Esters 2% (Pseudomonas aeruginosa; SDS 0.0 ppm): −
MIC, Concentration of Lactic Esters 2% (Pseudomonas aeruginosa; SDS 50 ppm): −
MIC, Concentration of Lactic Esters 2% (Pseudomonas aeruginosa; SDS 100 ppm): −
MIC, Concentration of Lactic Esters 2% (Pseudomonas aeruginosa; SDS 200 ppm): −
MLC, Concentration of Butyl lactate 3% (Pseudomonas aeruginosa; 3%): −
MIC, Concentration of Lactic Esters 3% (Pseudomonas aeruginosa; SDS 0.0 ppm): −
MIC, Concentration of Lactic Esters 3% (Pseudomonas aeruginosa; SDS 50 ppm): −
MIC, Concentration of Lactic Esters 3% (Pseudomonas aeruginosa; SDS 100 ppm): −
MIC, Concentration of Lactic Esters 3% (Pseudomonas aeruginosa; SDS 200 ppm): −
MLC, Concentration of Butyl lactate 4% (Pseudomonas aeruginosa; 4%): −
MIC, Concentration of Lactic Esters 4% (Pseudomonas aeruginosa; SDS 0.0 ppm): −
MIC, Concentration of Lactic Esters 4% (Pseudomonas aeruginosa; SDS 50 ppm): −
MIC, Concentration of Lactic Esters 4% (Pseudomonas aeruginosa; SDS 100 ppm): −
MIC, Concentration of Lactic Esters 4% (Pseudomonas aeruginosa; SDS 200 ppm): −
MLC, Concentration of Butyl lactate 5% (Pseudomonas aeruginosa; 5%): −
MIC, Concentration of Lactic Esters 5% (Pseudomonas aeruginosa; SDS 0.0 ppm): −
MIC, Concentration of Lactic Esters 5% (Pseudomonas aeruginosa; SDS 50 ppm): −
MIC, Concentration of Lactic Esters 5% (Pseudomonas aeruginosa; SDS 100 ppm): −
MIC, Concentration of Lactic Esters 5% (Pseudomonas aeruginosa; SDS 200 ppm): −
Lethal (MLC) Concentration 1% (Saccharomyces cerevisiae): −
Inhibitory (MIC) Concentration 1% (Saccharomyces cerevisiae; 48 hrs, 25° C): −
Inhibitory (MIC) Concentration 1% (Saccharomyces cerevisiae; Sodium lauryl sulfate 200 ppm): −
Lethal (MLC) Concentration 1% (Saccharomyces cerevisiae; Sodium lauryl sulfate 200 ppm): −
Lethal (MLC) Concentration 1.5% (Saccharomyces cerevisiae): −
Inhibitory (MIC) Concentration 1.5% (Saccharomyces cerevisiae; 48 hrs, 25° C): −
Inhibitory (MIC) Concentration 1.5% (Saccharomyces cerevisiae; Sodium lauryl sulfate 200 ppm): −
Lethal (MLC) Concentration 1.5% (Saccharomyces cerevisiae; Sodium lauryl sulfate 200 ppm): −
Lethal (MLC) Concentration 2% (Saccharomyces cerevisiae): −
Inhibitory (MIC) Concentration 2% (Saccharomyces cerevisiae; 48 hrs, 25° C): −
Inhibitory (MIC) Concentration 2% (Saccharomyces cerevisiae; Sodium lauryl sulfate 200 ppm): −
Lethal (MLC) Concentration 2% (Saccharomyces cerevisiae; Sodium lauryl sulfate 200 ppm): −
Lethal (MLC) Concentration 3% (Saccharomyces cerevisiae): −
Inhibitory (MIC) Concentration 3% (Saccharomyces cerevisiae; 48 hrs, 25° C): −
Inhibitory (MIC) Concentration 3% (Saccharomyces cerevisiae; Sodium lauryl sulfate 200 ppm): −
Lethal (MLC) Concentration 3% (Saccharomyces cerevisiae; Sodium lauryl sulfate 200 ppm): −
Lethal (MLC) Concentration 4% (Saccharomyces cerevisiae): −
Inhibitory (MIC) Concentration 4% (Saccharomyces cerevisiae; 48 hrs, 25° C): −
Inhibitory (MIC) Concentration 4% (Saccharomyces cerevisiae; Sodium lauryl sulfate 200 ppm): −
Lethal (MLC) Concentration 4% (Saccharomyces cerevisiae; Sodium lauryl sulfate 200 ppm): −
